Experiments:
K562 = assay: In vitro antitumor activity against K562 cell line extracted formchronic myelogenous leukemia; format: functional, cell-based; details: Homo sapiens
A-375 = assay: In vitro antitumor activity against A375cell line extracted form melanoma; format: functional, cell-based; details: Homo sapiens
HL-60 = assay: In vitro antitumor activity against HL-60 cell line extracted formpromyelocytic leukemia; format: functional, cell-based; details: Homo sapiens
L1210 [1] = assay: In vitro antitumor activity using the incorporation of thymidine and uridine into RNA of L1210 cells at time 2 hr; format: functional, Mus musculus
L1210 [2] = assay: In vitro antitumor activity using the incorporation of thymidine and uridine into DNA of L1210 cells at time 1 hr; format: functional, Mus musculus
PANC-1 = assay: In vitro antitumor activity against PANC cell line extracted form pancreas adenocarcinoma; format: functional, cell-based; details: Homo sapiens
L1210 [3] = assay: In vitro antitumor activity using the incorporation of thymidine and uridine into DNA of L1210 cells at time 2 hr; format: functional, Mus musculus
COLO 320DM = assay: In vitro antitumor activity against COLO 320DM cell line extracted form colon adenocarcinoma; format: functional, cell-based; details: Homo sapiens
CCRF-CEM = assay: In vitro antitumor activity against CCRF-CEM cell line extracted form acute lymphoblastic leukemia; format: functional, cell-based; details: Homo sapiens
L1210 [4] = assay: In vitro antitumor activity using the incorporation of thymidine and uridine into RNA of L1210 cells at time 3 hr; format: functional, Mus musculus
L1210 [5] = assay: In vitro antitumor activity using the incorporation of thymidine and uridine into DNA of L1210 cells at time 3 hr; format: functional, Mus musculus
L1210 [6] = assay: In vitro antitumor activity using the incorporation of thymidine and uridine into RNA of L1210 cells at time 1 hr; format: functional, Mus musculus
HT-1080 = assay: In vitro antitumor activity against HT1080 cell line extracted form fibrosarcoma; format: functional, cell-based; details: Homo sapiens
Huh-7 = assay: In vitro antitumor activity against HuH7 cell line extracted form hepatoma; format: functional, cell-based; details: Homo sapiens
MCF7 = assay: In vitro antitumor activity against MCF-7 cell line extracted form mammary carcinoma; format: functional, cell-based; details: Homo sapiens
MIA PaCa-2 = assay: In vitro antitumor activity against MiaPaCa-2 cell line extracted form pancreas adenocarcinoma; format: functional, cell-based; details: Homo sapiens

Nc1ccn(C2OC(CO)[C@@H](O)[C@H]2NO)c(=O)n1 (stereo partly specified)
IC50 (K562): 2.77 µM | IC50 (A-375): 0.89 µM | IC50 (HL-60): 5.76 µM | Inhibition (L1210 [1]): 20% | Inhibition (L1210 [2]): 83% | IC50 (PANC-1): 69.1 µM | Inhibition (L1210 [3]): 98% | IC50 (COLO 320DM): 8.93 µM | IC50 (CCRF-CEM): 1.73 µM | Inhibition (L1210 [4]): 23% | Inhibition (L1210 [5]): 95% | Inhibition (L1210 [6]): 21% | IC50 (HT-1080): 2.53 µM | IC50 (Huh-7): 1.47 µM | IC50 (MCF7): 1.3 µM | IC50 (MIA PaCa-2): 4 µM
